One test concerns IL-23 (p19/p40). The test is described as follows: IL23-p19 ELISA, Dendritic, LPS (compound screening using DC cells). It is filed as cell-based, Human. To be noted: PBMC-derived DC cells, IFNγ primed, LPS 1 μg/ml, 18 hours, 10 pt, read-out: IL23-p19 ELISA, Dendritic, LPS, 10 pt, EC50. In a few lines: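 Human PBMC-derived dendritic cells (7 d GM-CSF 100 ng/ml + IL-4 20 ng/ml), primed 24 h with IFNγ 50 ng/ml, pre-incubated 1 h with compound, then stimulated 18 h with LPS 1 μg/ml. Supernatant IL-23 measured by p19-capture/p40-detection chemiluminescent ELISA; CellTiter Glo checks cytotoxicity.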
(In general: An ELISA detects its analyte on a solid surface through an enzyme-linked reagent.)

The test system of another test is IL-23p19. The test is described as follows: LPS induced IL23p19 in THP-1 cells (with IFNγ primed) assay. It is filed as cell-based, Human. To be noted: THP-1 cells, IFNγ primed, LPS 1 ug/mL, 18 hours, 10 pt, read-out: IL23-p19 ELISA, THP1-IFNy, LPS, 10 pt EC50. An outline of the steps: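 THP-1 cells primed ~18 h with IFNγ (50 ng/mL), pre-incubated 1 h with compound at 37 °C, then stimulated 18 h with LPS (1 ug/mL final). Supernatant IL-23p19 measured by sandwich ELISA with chemiluminescent read-out; EC50 from curve fitting. Toxicity checked on the remaining cells by Cell Titer Glo.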

Counter-ions that a name gives are not always drawn. Like-named read-outs stand apart in the source and are kept apart here.

Usually EC50 stands for the midpoint of the concentration-response curve. With `O=C(Nc1cn(CCOCC(F)F)nc1-c1ccccn1)c1coc(-c2cn[nH]c2)n1` [III-8, N-(1-(2-(2,2-difluoroethoxy)ethyl)-3-(pyridin-2-yl)-1H-pyrazol-4-yl)-2-(1H-pyrazol-4-yl)oxazole-4-carboxamide], the EC50 with IL-23 (p19/p40) (Homo sapiens, 18 h) was 161 nM; in the test with IL-23p19 (Homo sapiens, THP-1, 18 h) it was 400 nM.

For the compound `CCO[C@@H]1C[C@H](n2cc(NC(=O)c3ccc(-c4cn[nH]c4)o3)c(-c3ccccn3)n2)C1F` (stereo partly drawn) [Compound I-140, N-(1-((1S,3R)-3-ethoxy-2-fluorocyclobutyl)-3-(pyridin-2-yl)-1H-pyrazol-4-yl)-5-(1H-pyrazol-4-yl)furan-2-carboxamide formate], the EC50 in the test on IL-23 (p19/p40) (Homo sapiens, 18 h) came to 224 nM; in the test with IL-23p19 (Homo sapiens, THP-1, 18 h), 799 nM.

For the compound `CCCNC(=O)N1CC(n2cc(NC(=O)c3ccc(-c4cn[nH]c4)o3)c(-c3ccccn3)n2)C1` [Compound I-86, 3-[4-{5-(1H-Pyrazol-4-yl)furan-2-carboxamido}-3-(pyridine-2-yl)-1H-pyrazol-1-yl]-N-propylazetidine-1-carboxamide, free base], the EC50 came to 63.7 nM with IL-23 (p19/p40) (Homo sapiens, 18 h) and 61.4 nM in the test on IL-23p19 (Homo sapiens, THP-1, 18 h).

As for `Cc1n[nH]cc1-c1nc(C(=O)Nc2cn(C)nc2-c2ccccn2)cs1` [II-27, 2-(3-methyl-1H-pyrazol-4-yl)-N-(1-methyl-3-(pyridin-2-yl)-1H-pyrazol-4-yl)thiazole-4-carboxamide], the EC50 is 331 nM with IL-23 (p19/p40) (Homo sapiens, 18 h) and 74.1 nM in the test with IL-23p19 (Homo sapiens, THP-1, 18 h).

As for `N#Cc1nn([C@H]2C[C@@H](O)C2)cc1NC(=O)c1csc(-c2cn[nH]c2)n1` [II-136, N-(3-cyano-1-((1s,3s)-3-hydroxycyclobutyl)-1H-pyrazol-4-yl)-2-(1H-pyrazol-4-yl)thiazole-4-carboxamide], the half-maximal effective concentration (EC50) in the test on IL-23 (p19/p40) (Homo sapiens, 18 h) stood at 10700 nM; in the test on IL-23p19 (Homo sapiens, THP-1, 18 h), 1220 nM.

Regarding `CCOCCn1cc(NC(=O)c2ccc(-c3cnn(COP(=O)(O)O)c3)o2)c(-c2ccccn2)n1` [Compound I-54, (4-(5-((1-(2-ethoxyethyl)-3-(pyridin-2-yl)-1H-pyrazol-4-yl)carbamoyl)furan-2-yl)-1H-pyrazol-1-yl)methyl dihydrogen phosphate], the EC50 stood at 1580 nM in the test with IL-23 (p19/p40) (Homo sapiens, 18 h) and 617 nM in the test with IL-23p19 (Homo sapiens, THP-1, 18 h).

Regarding `O=C(Nc1cn(C2CC(OCc3ccccc3)C2)nc1-c1ccccn1)c1ccc(-c2cn[nH]c2)o1` (stereo not drawn) [Compound I-73, N-{1-(3-Benzyloxy)cyclobutyl)-3-(pyridine-2-yl)-1H-pyrazol-4-yl}-5-(1H-pyrazol-4-yl)furan-2-carboxamide, Trans isomer], the EC50 in the test with IL-23 (p19/p40) (Homo sapiens, 18 h) turned out to be 410 nM; in the test on IL-23p19 (Homo sapiens, THP-1, 18 h) it was 697 nM.

Regarding `CC(C)(C)OC(=O)N1CC(n2cc(NC(=O)c3csc(-c4cn[nH]c4)n3)c(-c3ccccn3)n2)C1` [II-54], the EC50 in the test with IL-23 (p19/p40) (Homo sapiens, 18 h) was 189 nM; with IL-23p19 (Homo sapiens, THP-1, 18 h), 171 nM.

For `CCO[C@H]1C[C@H](n2cc(NC(=O)c3csc(-c4cn[nH]c4)n3)c(-c3ccccn3)n2)C1` [II-12, N-(1-((1,3-trans)-3-ethoxycyclobutyl)-3-(pyridin-2-yl)-1H-pyrazol-4-yl)-2-(1H-pyrazol-4-yl)thiazole-4-carboxamide], the EC50 in the test with IL-23 (p19/p40) (Homo sapiens, 18 h) is 61.6 nM; in the test with IL-23p19 (Homo sapiens, THP-1, 18 h) it was 135 nM.

With `O=C(Nc1cn(CCOCC(F)(F)F)nc1-c1ccccn1)c1coc(-c2cc[nH]n2)n1` [III-7, 2-(1H-pyrazol-3-yl)-N-(3-(pyridin-2-yl)-1-(2-(2,2,2-trifluoroethoxy)ethyl)-1H-pyrazol-4-yl)oxazole-4-carboxamide], the EC50 worked out at 451 nM in the test with IL-23 (p19/p40) (Homo sapiens, 18 h) and 85.3 nM in the test on IL-23p19 (Homo sapiens, THP-1, 18 h).

Regarding `O=C(Nc1cn(Cc2ccccc2)nc1-c1ccccn1)c1csc(-c2cn[nH]c2)n1` [II-120, N-(1-benzyl-3-(pyridin-2-yl)-1H-pyrazol-4-yl)-2-(1H-pyrazol-4-yl)thiazole-4-carboxamide], the EC50 came out at 1170 nM in the test with IL-23 (p19/p40) (Homo sapiens, 18 h) and 664 nM with IL-23p19 (Homo sapiens, THP-1, 18 h).

Take `O=C(Nc1cn([C@H]2C[C@H](OCC(F)(F)F)C2)nc1-c1ccccn1)c1csc(-c2cn[nH]c2)n1` [II-141, 2-(1H-pyrazol-4-yl)-N-(3-(pyridin-2-yl)-1-((trans)-3-(2,2,2-trifluoroethoxy)cyclobutyl)-1H-pyrazol-4-yl)thiazole-4-carboxamide]: the EC50 in the test on IL-23 (p19/p40) (Homo sapiens, 18 h) was 51.7 nM; with IL-23p19 (Homo sapiens, THP-1, 18 h), 251 nM.

As to `O=C(Nc1cn([C@H]2CC[C@@H](O)C2)nc1-c1ccccn1)c1csc(-c2cn[nH]c2)n1` (relative stereo) [II-149, N-(1-((cis)-3-hydroxycyclopentyl)-3-(pyridin-2-yl)-1H-pyrazol-4-yl)-2-(1H-pyrazol-4-yl)thiazole-4-carboxamide], the EC50 in the test with IL-23 (p19/p40) (Homo sapiens, 18 h) came out at 56.8 nM; in the test on IL-23p19 (Homo sapiens, THP-1, 18 h) it was 34.3 nM.

Take `CN1CCN(CCn2cc(NC(=O)c3ccc(-c4cn[nH]c4)o3)c(-c3ccccn3)n2)CC1` [Compound I-112, N-(1-(2-(4-methylpiperazin-1-yl)ethyl)-3-(pyridin-2-yl)-1H-pyrazol-4-yl)-5-(1H-pyrazol-4-yl)furan-2-carboxamide]: the EC50 in the test on IL-23 (p19/p40) (Homo sapiens, 18 h) is 40.7 nM; in the test on IL-23p19 (Homo sapiens, THP-1, 18 h), 42.8 nM.

For the compound `CCO[C@H]1C[C@@H](n2cc(NC(=O)c3csc(-c4cnn(COP(=O)(O)O)c4)n3)c(-c3cccc(F)n3)n2)C1` [II-173, (4-(4-((1-((cis)-3-ethoxycyclobutyl)-3-(6-fluoropyridin-2-yl)-1H-pyrazol-4-yl)carbamoyl)thiazol-2-yl)-1H-pyrazol-1-yl)methyl dihydrogen phosphate], the half-maximal effective concentration (EC50) in the test with IL-23 (p19/p40) (Homo sapiens, 18 h) is 314 nM; with IL-23p19 (Homo sapiens, THP-1, 18 h) it was 41.4 nM.

For the compound `O=C(Nc1cn(C2C=C(F)C2)nc1-c1ccccn1)c1csc(-c2cn[nH]c2)n1` (stereo not drawn) [II-132, N-(1-(3-fluorocyclobut-2-en-1-yl)-3-(pyridin-2-yl)-1H-pyrazol-4-yl)-2-(1H-pyrazol-4-yl)thiazole-4-carboxamide], the EC50 is 924 nM with IL-23 (p19/p40) (Homo sapiens, 18 h) and 224 nM in the test with IL-23p19 (Homo sapiens, THP-1, 18 h).

With `COC1CC(n2cc(NC(=O)c3ccc(-c4cn[nH]c4)o3)c(-c3ccccn3)n2)C1` (stereo not drawn) [Compound I-72, N-{1-(3-Methoxycyclobutyl)-3-(pyridine-2-yl)-1H-pyrazol-4-yl}-5-(1H-pyrazol-4-yl)furan-2-carboxamide, Cis isomer], the values for the EC50 with IL-23 (p19/p40) and in the test on IL-23p19 were 5 nM and 56.8 nM, respectively.

Take `O=C(Nc1cn(C2CCOCC2)nc1-c1ccccn1)c1coc(-c2cn[nH]c2)n1` [III-2, 2-(1H-pyrazol-4-yl)-N-(3-(pyridin-2-yl)-1-(tetrahydro-2H-pyran-4-yl)-1H-pyrazol-4-yl)oxazole-4-carboxamide]: the EC50 with IL-23 (p19/p40) (Homo sapiens, 18 h) stood at 135 nM; with IL-23p19 (Homo sapiens, THP-1, 18 h), 39.9 nM.

Take `CCO[C@H]1C[C@@H](n2cc(NC(=O)c3csc(-c4cnn(COP(=O)(O)O)c4)n3)c(-c3ncccc3F)n2)C1` [II-164, (4-(4-((1-((cis)-3-ethoxycyclobutyl)-3-(3-fluoropyridin-2-yl)-1H-pyrazol-4-yl)carbamoyl)thiazol-2-yl)-1H-pyrazol-1-yl)methyl disodium phosphate]: the EC50 in the test on IL-23 (p19/p40) is 912 nM; in the test on IL-23p19, 111 nM.

Regarding `CCOCCn1cc(NC(=O)c2csc(-c3c[nH]nc3C)n2)c(-c2ccccn2)n1` [II-21, N-(1-(2-ethoxyethyl)-3-(pyridin-2-yl)-1H-pyrazol-4-yl)-2-(3-methyl-1H-pyrazol-4-yl)thiazole-4-carboxamide, formic acid salt], the EC50 in the test on IL-23 (p19/p40) (Homo sapiens, 18 h) amounted to 569 nM; with IL-23p19 (Homo sapiens, THP-1, 18 h), 315 nM.

As to `COCCOCCn1cc(NC(=O)c2coc(-c3cc[nH]n3)n2)c(-c2ccccn2)n1` [III-6, N-(1-(2-(2-methoxyethoxy)ethyl)-3-(pyridin-2-yl)-1H-pyrazol-4-yl)-2-(1H-pyrazol-3-yl)oxazole-4-carboxamide], the EC50 was determined as 217 nM with IL-23 (p19/p40) (Homo sapiens, 18 h) and 238 nM with IL-23p19 (Homo sapiens, THP-1, 18 h).
